“And” between values parts separate entries of the source, which are not always exact repeats. Equal values may be shown once. Toxic doses and inconclusive results are not listed. Residues, ends and D or L forms follow the SMILES beside them. *: point of attachment. Cbz = O=C(OCc1ccccc1)*; OtBu = CC(C)(C)O*

The results in this text go back to PubChem BioAssay AID328 (DTP/NCI, 2004).

The test system of the assay is BDF1 mice, P388 leukemia ip, median survival T/C. Put plainly: NCI In Vivo Anticancer Drug Screen. Data for tumor model P388 Leukemia (intraperitoneal) in B6D2F1 (BDF1) mice. The conditions noted are these: endpoint: median survival time, higher = longer survival. In a few lines: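 Compound-treated tumour-bearing mice were compared with vehicle-treated controls. Survival was recorded, and the value is the treated-group measurement divided by the control-group measurement (T/C).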

Setting [1] is: dose: 100.0 mg/kg/injection, schedule: Q01DX009 (ip), vehicle: saline.
Where [2] appears, read: dose: 100.0 mg/kg/injection, schedule: Q04DX003 (ip), vehicle: saline.
The mark [3] stands for this setting: dose: 200.0 mg/kg/injection, schedule: Q04DX003 (ip), vehicle: saline with Tween-80.
Setting [4] is: dose: 50.0 mg/kg/injection, schedule: Q01DX009 (ip), vehicle: saline with Tween-80.
[5] abbreviates: dose: 200.0 mg/kg/injection, schedule: Q04DX003 (ip), vehicle: saline.
Setting [6] is: dose: 400.0 mg/kg/injection, schedule: Q04DX003 (ip), vehicle: other.
Where [7] appears, read: dose: 50.0 mg/kg/injection, schedule: Q04DX003 (ip), vehicle: saline with Tween-80.
[8] abbreviates: dose: 100.0 mg/kg/injection, schedule: Q01DX009 (ip), vehicle: saline with Tween-80.
Where [9] appears, read: dose: 200.0 mg/kg/injection, schedule: Q01DX009 (ip), vehicle: saline with Tween-80.
The mark [10] stands for this setting: dose: 400.0 mg/kg/injection, schedule: Q01DX009 (ip), vehicle: saline with Tween-80.
Setting [11] is: dose: 25.0 mg/kg/injection, schedule: Q01DX009 (ip), vehicle: Klucel (hydroxypropylcellulose) (HPC).
The mark [12] stands for this setting: dose: 50.0 mg/kg/injection, schedule: Q01DX009 (ip), vehicle: Klucel (hydroxypropylcellulose) (HPC).
[13] abbreviates: dose: 100.0 mg/kg/injection, schedule: Q01DX009 (ip), vehicle: Klucel (hydroxypropylcellulose) (HPC).
[14] abbreviates: dose: 100.0 mg/kg/injection, schedule: Q04DX003 (ip), vehicle: saline with Tween-80.
[15] abbreviates: dose: 50.0 mg/kg/injection, schedule: Q01DX009 (ip), vehicle: saline.
Setting [16] is: dose: 200.0 mg/kg/injection, schedule: Q01DX009 (ip), vehicle: saline.

For the compound `CCNc1nncs1`, the T/C was 116 % of control (dose: 30.0 mg/kg/injection, schedule: Q01DX009 (ip), vehicle: saline); 100 % of control (dose: 38.0 mg/kg/injection, schedule: Q04DX003 (ip), vehicle: saline with Tween-80); 114 % of control (dose: 44.0 mg/kg/injection, schedule: Q01DX009 (ip), vehicle: saline); 100 % of control (dose: 58.0 mg/kg/injection, schedule: Q04DX003 (ip), vehicle: saline with Tween-80); 108 % of control (dose: 88.0 mg/kg/injection, schedule: Q04DX003 (ip), vehicle: saline with Tween-80); 150 % of control and 168 % of control under setting [1]. The T/C reads like this: under setting [2], 86 % of control; (dose: 150.0 mg/kg/injection, schedule: Q01DX009 (ip), vehicle: saline) 105 % of control; under setting [3], 165 % of control; (dose: 225.0 mg/kg/injection, schedule: Q01DX009 (ip), vehicle: saline) 95 % of control; (dose: 300.0 mg/kg/injection, schedule: Q04DX003 (ip), vehicle: saline with Tween-80) 196 % of control.
Regarding `CCN(CC)CCCC(C)Nc1c2ccc(C)cc2nc2ccc(OC)cc12` (centres undefined), the T/C under setting [4] was 123 % of control.
On to `COc1cc(/C=N/n2cnnc2)cc(OC)c1OC`, for which the T/C is 100 % of control under setting [2]; 100 % of control under setting [5]; 109 % of control (dose: 400.0 mg/kg/injection, schedule: Q04DX003 (ip), vehicle: saline).
Consider `FC(F)(Cl)c1nc2nc(Cl)c(Cl)nc2[nH]1`, for which the T/C reads like this: (dose: 266.0 mg/kg/injection, schedule: Q04DX003 (ip), vehicle: other) 100 % of control; under setting [6], 108 % of control; (dose: 600.0 mg/kg/injection, schedule: Q04DX003 (ip), vehicle: other) 108 % of control.
Take `C1CO[Te]2(O1)OCCO2`: the T/C is, setting by setting: (dose: 12.5 mg/kg/injection, schedule: Q04DX003 (ip), vehicle: saline with Tween-80) 97 % of control; (dose: 25.0 mg/kg/injection, schedule: Q04DX003 (ip), vehicle: saline with Tween-80) 88 % of control; under setting [7], 88 % of control.
Regarding `Cc1occc(=O)c1O`, the T/C is 88 % of control under setting [4], 117 % of control under setting [8], 90 % of control under setting [9] and 106 % of control under setting [10].
`NC(CCC(=O)NNc1ccccc1)C(=O)O` (centres undefined): the T/C is 96 % of control (dose: 15.0 mg/kg/injection, schedule: Q01DX009 (ip), vehicle: saline with Tween-80) and 91 % of control (dose: 30.0 mg/kg/injection, schedule: Q01DX009 (ip), vehicle: saline with Tween-80).
`CCOc1nc(SCC)ncc1C`: the T/C is 109 % of control (dose: 50.0 mg/kg/injection, schedule: Q01DX009 (ip), vehicle: water); 101 % of control (dose: 100.0 mg/kg/injection, schedule: Q01DX009 (ip), vehicle: water); 99 % of control (dose: 100.0 mg/kg/injection, schedule: Q04DX003 (ip), vehicle: water); 108 % of control (dose: 200.0 mg/kg/injection, schedule: Q01DX009 (ip), vehicle: water); 103 % of control (dose: 200.0 mg/kg/injection, schedule: Q04DX003 (ip), vehicle: water); 107 % of control (dose: 400.0 mg/kg/injection, schedule: Q04DX003 (ip), vehicle: water).
In the case of `O=C(O)CCCCc1ccc(CCCCC(=O)O)cc1`, the T/C is 104 % of control under setting [11]; 104 % of control under setting [12]; 90 % of control under setting [13]; 120 % of control (dose: 150.0 mg/kg/injection, schedule: Q04DX003 (ip), vehicle: Klucel (hydroxypropylcellulose) (HPC)).
In the case of `CC1=C(Br)C(=O)C(c2c(C)c(Br)c(C)c([N+](=O)[O-])c2C)=C(Br)C1=O`, the T/C by setting is: (dose: 100.0 mg/kg/injection, schedule: Q01DX001 (ip), vehicle: Klucel (hydroxypropylcellulose) (HPC)) 100 % of control; (dose: 200.0 mg/kg/injection, schedule: Q01DX001 (ip), vehicle: Klucel (hydroxypropylcellulose) (HPC)) 110 % of control; (dose: 400.0 mg/kg/injection, schedule: Q01DX001 (ip), vehicle: Klucel (hydroxypropylcellulose) (HPC)) 100 % of control.
On to `CCCCC/C(C=C(C#N)C#N)=C/c1ccccc1`, for which the T/C by setting is: (dose: 25.0 mg/kg/injection, schedule: Q01DX009 (ip), vehicle: saline with Tween-80) 100 % of control; under setting [8], 119 % of control.
Regarding `O=S1(=O)C=CCCC=C1`, the T/C under setting [12] was 100 % of control and the T/C under setting [13] was 89 % of control.
Turning to `COC(=O)c1cc(=O)nc(N/N=C/c2ccc(C)cc2)s1`, the T/C was 94 % of control (dose: 50.0 mg/kg/injection, schedule: Q01DX005 (ip), vehicle: saline with Tween-80); 89 % of control (dose: 100.0 mg/kg/injection, schedule: Q01DX005 (ip), vehicle: saline with Tween-80); 99 % of control (dose: 200.0 mg/kg/injection, schedule: Q01DX005 (ip), vehicle: saline with Tween-80).
Take `O=C1C[C@H]2[C@H](CO)[C@@H](OC(=O)c3ccc(-c4ccccc4)cc3)C[C@H]2O1`: the T/C runs as follows: (dose: 12.5 mg/kg/injection, schedule: Q01DX009 (ip), vehicle: Klucel (hydroxypropylcellulose) (HPC)) 105 % of control; under setting [11], 115 % of control; under setting [12], 105 % of control; (dose: 75.0 mg/kg/injection, schedule: Q01DX009 (ip), vehicle: saline with Tween-80) 120 % of control.
On to `CC1(C)CCSC(/C=C/c2ccccc2)=N1`, for which the T/C runs as follows: under setting [12], 103 % of control; under setting [13], 121 % of control.
In the case of `CC1CCC2(CC1)NC(=O)N(CNc1ccccc1)C2=O` (centres undefined), the T/C under setting [7] was 100 % of control, the T/C under setting [14] is 87 % of control and the T/C under setting [3] is 100 % of control.
Regarding `OC(CC(O)(C(F)(F)F)C(F)(F)F)c1cccc(C(F)(F)F)c1` (centres undefined), the T/C is, setting by setting: (dose: 100.0 mg/kg/injection, schedule: Q04DX003 (ip), vehicle: other) 100 % of control; (dose: 200.0 mg/kg/injection, schedule: Q04DX003 (ip), vehicle: other) 104 % of control; under setting [6], 95 % of control.
As to `CN(C)c1ccc(C=Nc2c(N)n(C)c(=O)n(C)c2=O)cc1`, the T/C under setting [14] is 101 % of control; the T/C under setting [3] is 92 % of control; the T/C (dose: 400.0 mg/kg/injection, schedule: Q04DX003 (ip), vehicle: saline with Tween-80) is 93 % of control.
As for `COC(=O)C(CCC(=O)OC(C)(C)C)NC(=O)C(NC(=O)OCc1ccccc1)C(C)C` (stereo not drawn) (Cbz-Val-Glu(OtBu)-OMe; configuration not given here), the T/C reads like this: under setting [8], 100 % of control; under setting [9], 100 % of control; under setting [10], 95 % of control.
For the compound `CCCCCCCC[N+](C)(C)CCSCC[N+](C)(C)CCCCCCCC`, under “dose: 12.5 mg/kg/injection, schedule: Q01DX009 (ip), vehicle: saline with Tween-80”, the T/C is 109 % of control.
In the case of `c1ccc(OP2OCCO2)cc1`, the T/C runs as follows: under setting [15], 104 % of control; under setting [1], 104 % of control; under setting [2], 87 % of control; under setting [16], 95 % of control; under setting [5], 112 % of control.
Take `C#CCOC(=O)Nc1ccccc1Cl`: the T/C was 110 % of control under setting [12]; 100 % of control (dose: 50.0 mg/kg/injection, schedule: Q04DX003 (ip), vehicle: Klucel (hydroxypropylcellulose) (HPC)); 100 % of control under setting [13]; 109 % of control (dose: 100.0 mg/kg/injection, schedule: Q04DX003 (ip), vehicle: Klucel (hydroxypropylcellulose) (HPC)); 100 % of control (dose: 200.0 mg/kg/injection, schedule: Q01DX009 (ip), vehicle: Klucel (hydroxypropylcellulose) (HPC)); 109 % of control (dose: 200.0 mg/kg/injection, schedule: Q04DX003 (ip), vehicle: Klucel (hydroxypropylcellulose) (HPC)).
Regarding `CCCCCC(C)(C)O`, the T/C by setting is: under setting [15], 95 % of control; under setting [1], 104 % of control; under setting [2], 112 % of control; under setting [16], 104 % of control; under setting [5], 100 % of control.
Regarding `CCN(CC)CCNc1ncnc2c1cnn2-c1ccc(Cl)cc1`, the T/C was 109 % of control under setting [14] and 109 % of control under setting [3].
